Laboratory results: patent US7745495B2, “Pyridine ketones with herbicidal effect” (Syngenta Crop Protection, Inc., priority 2004, dated 2010)

Key:
[1] = system: Abutilon; test: Pre-emergence herbicidal action; assay type: in vivo; settings: rating 10=total damage, 0=no action; for Pre-emergence herbicidal action: Abutilon: 250 g/ha, after 3 weeks
Procedure: (§1) Monocotyledonous and dicotyledonous test plants are sown in standard soil in plastic pots. […] The test plants are then grown in a greenhouse under optimum conditions. After a test duration of 3 weeks, the test is evaluated in accordance with a scale of ten ratings (10=total damage, 0=no action). Ratings of from 10 to 7 (especially from 10 to 8) indicate good to very good herbicidal action.

[2] = system: Amaranthus; test: Pre-emergence herbicidal action; assay type: in vivo; settings: rating 10=total damage, 0=no action; for Pre-emergence herbicidal action: Amaranthus: 250 g/ha, after 3 weeks
Procedure: as §1

[3] = system: Digitaria; test: Pre-emergence herbicidal action; assay type: in vivo; settings: rating 10=total damage, 0=no action; for Pre-emergent Herbicidal Activity: Digitaria: Table B4; for Pre-emergence herbicidal action: Digitaria: 250 g/ha, after 3 weeks
Procedure: as §1

[4] = system: Echinochloa; test: Pre-emergence herbicidal action; assay type: in vivo; settings: rating 10=total damage, 0=no action; for Pre-emergence herbicidal action: Echinochloa: 250 g/ha, after 3 weeks
Procedure: as §1

[5] = system: Panicum; test: Pre-emergence herbicidal action; assay type: in vivo; settings: rating 10=total damage, 0=no action; for Pre-emergent Herbicidal Activity: Panicum: Table B4; for Pre-emergence herbicidal action: Panicum: 250 g/ha, after 3 weeks
Procedure: as §1

[6] = system: Corn; test: Pre-emergent herbicidal activity on crop plant; assay type: in vivo; settings: crop plant, rating 10=total damage, 0=no action
Procedure: as §1
(§2) In the following Table B3, the pre-emergent herbicidal activity of compound H-14 according to the invention is compared with 4 compounds according to the prior art. All compounds are structurally identical except for the nature of the alkylene linker attached to the pyridine ring.

[7] = system: Soya; test: Pre-emergent herbicidal activity on crop plant; assay type: in vivo; settings: crop plant, rating 10=total damage, 0=no action
Procedure: as §1, §2

[8] = system: Xanthium; test: Pre-emergent herbicidal activity; assay type: in vivo; settings: Table B4, rating 10=total damage, 0=no action
Procedure: as §1
In the following Table B4, the pre-emergent herbicidal activity of compound H-3 according to the invention is compared with compound D according to the prior art. Both compounds are structurally identical except for the length of the alkylene linker attached to the pyridine ring.

[9] = system: Chenopodium; test: Pre-emergence herbicidal action; assay type: in vivo; settings: 250 g/ha; after 3 weeks; rating 10=total damage, 0=no action
Procedure: (§3) Monocotyledonous and dicotyledonous test plants are sown in standard soil in plastic pots. Immediately after sowing, the test compounds, in the form of an aqueous suspension (prepared from a 25% wettable powder (Example F3, b) according to WO 97/34485) or in the form of an emulsion (prepared from a 25% emulsifiable concentrate (Example F1, c)), are applied by spraying a concentration corresponding to 125 g or 250 g of active ingredient/ha (500 liter of water/ha). The test plants are then grown in a greenhouse under optimum conditions. After a test duration of 3 weeks, the test is evaluated in accordance with a scale of ten ratings (10=total damage, 0=no action). Ratings of from 10 to 7 (especially from 10 to 8) indicate good to very good herbicidal action.

[10] = system: Stellaria; test: Pre-emergence herbicidal action; assay type: in vivo; settings: 250 g/ha; after 3 weeks; rating 10=total damage, 0=no action
Procedure: as §3

[11] = system: Brachiaria; test: Pre-emergent herbicidal activity; assay type: in vivo; settings: Table B3, rating 10=total damage, 0=no action
Procedure: as §1, §2

[12] = system: Setaria; test: Pre-emergent herbicidal activity; assay type: in vivo; settings: Table B3, rating 10=total damage, 0=no action
Procedure: as §1, §2

[13] = system: Abutilon; test: Post-emergence herbicidal action; assay type: in vivo; settings: 250 g/ha; 4- to 6-leaf stage; after about 18 days; rating 10=total damage, 0=no action
Procedure: (§4) In a greenhouse, monocotyledonous and dicotyledonous test plants are grown in standard soil in plastic pots and at the 4- to 6-leaf stage are sprayed with an aqueous suspension of the test compounds of formula I prepared from a 25% wettable powder (Example F3, b) according to WO 97/34485) or with an emulsion of the test compounds of formula I prepared from a 25% emulsifiable concentrate (Example F1, c) according to WO 97/34485), in a concentration corresponding to 125 g or 250 g of active ingredient/ha (500 liter of water/ha). The test plants are then grown on in a greenhouse under optimum conditions. After a test duration of about 18 days, the test is evaluated in accordance with a scale of ten ratings (10=total damage, 0=no action). Ratings of from 10 to 7 (especially from 10 to 8) indicate good to very good herbicidal action.

[14] = system: Chenopodium; test: Post-emergence herbicidal action; assay type: in vivo; settings: 250 g/ha; 4- to 6-leaf stage; after about 18 days; rating 10=total damage, 0=no action
Procedure: as §4

[15] = system: Digitaria; test: Post-emergence herbicidal action; assay type: in vivo; settings: 250 g/ha; 4- to 6-leaf stage; after about 18 days; rating 10=total damage, 0=no action
Procedure: as §4

[16] = system: Ipomea; test: Post-emergence herbicidal action; assay type: in vivo; settings: 250 g/ha; 4- to 6-leaf stage; after about 18 days; rating 10=total damage, 0=no action
Procedure: as §4

[17] = system: Panicum; test: Post-emergence herbicidal action; assay type: in vivo; settings: 250 g/ha; 4- to 6-leaf stage; after about 18 days; rating 10=total damage, 0=no action
Procedure: as §4

[18] = system: Setaria; test: Post-emergence herbicidal action; assay type: in vivo; settings: 250 g/ha; 4- to 6-leaf stage; after about 18 days; rating 10=total damage, 0=no action
Procedure: as §4

[19] = system: Sinapis; test: Post-emergence herbicidal action; assay type: in vivo; settings: 250 g/ha; 4- to 6-leaf stage; after about 18 days; rating 10=total damage, 0=no action
Procedure: as §4

[20] = system: Stellaria; test: Post-emergence herbicidal action; assay type: in vivo; settings: 250 g/ha; 4- to 6-leaf stage; after about 18 days; rating 10=total damage, 0=no action
Procedure: as §4

COCc1nc(C(F)F)ccc1C(=O)C1C(=O)C2CCC(C2)C1=O (centres unmarked) [D, reference compound]
3: Pre-emergent Herbicidal Activity: Soya ([7]; Table B4, 60 g/ha)
7: Pre-emergent Herbicidal Activity: Amaranthus ([2]; Table B4, 30 g/ha) | Pre-emergent Herbicidal Activity: Amaranthus ([2]; Table B4, 60 g/ha) | Pre-emergent Herbicidal Activity: Digitaria ([3]; 30 g/ha) | Pre-emergent Herbicidal Activity: Echinochloa ([4]; Table B4, 60 g/ha)
5: Pre-emergent Herbicidal Activity: Echinochloa ([4]; Table B4, 30 g/ha)
6: Pre-emergent Herbicidal Activity: Abutilon ([1]; Table B4, 30 g/ha)
9: Pre-emergent Herbicidal Activity: Abutilon ([1]; Table B4, 60 g/ha) | Pre-emergent Herbicidal Activity: Digitaria ([3]; 60 g/ha) | Pre-emergent Herbicidal Activity: Panicum ([5]; 60 g/ha)
8: Pre-emergent Herbicidal Activity: Panicum ([5]; 30 g/ha)
0: Pre-emergent Herbicidal Activity: Corn ([6]; Table B4, 30 g/ha) | Pre-emergent Herbicidal Activity: Corn ([6]; Table B4, 60 g/ha) | Pre-emergent Herbicidal Activity: Xanthium ([8]; 30 g/ha) | Pre-emergent Herbicidal Activity: Xanthium ([8]; 60 g/ha)
2: Pre-emergent Herbicidal Activity: Soya ([7]; Table B4, 30 g/ha)

COCCCc1nc(C(F)(F)F)ccc1C(=O)C1C(=O)C2CCC(C2)C1=O (centres unmarked) [Compound H-14, 3-[6-trifluoromethyl-2-(3-methoxy-propyl)-pyridine-3-carbonyl]-bicyclo[3.2.1]octane-2,4-dione]
8: Pre-emergence herbicidal action: Stellaria [10] | Pre-emergent Herbicidal Activity: Brachiaria ([11]; 30 g/ha)
1: Pre-emergent Herbicidal Activity: Soya ([7]; Table B3, 15 g/ha)
9: Pre-emergent Herbicidal Activity: Abutilon ([1]; Table B3, 15 g/ha) | Pre-emergent Herbicidal Activity: Echinochloa ([4]; Table B3, 15 g/ha) | Pre-emergent Herbicidal Activity: Setaria ([12]; 15 g/ha) | Post-emergence herbicidal action: Digitaria [15]
7: Pre-emergent Herbicidal Activity: Amaranthus ([2]; Table B3, 15 g/ha) | Pre-emergent Herbicidal Activity: Amaranthus ([2]; Table B3, 30 g/ha) | Pre-emergent Herbicidal Activity: Brachiaria ([11]; 15 g/ha)
0: Pre-emergent Herbicidal Activity: Corn ([6]; Table B3, 15 g/ha) | Pre-emergent Herbicidal Activity: Corn ([6]; Table B3, 30 g/ha)
3: Pre-emergent Herbicidal Activity: Soya ([7]; Table B3, 30 g/ha)
10: Pre-emergence herbicidal action: Abutilon [1] | Pre-emergent Herbicidal Activity: Abutilon ([1]; Table B3, 30 g/ha) | Pre-emergence herbicidal action: Amaranthus [2] | Pre-emergence herbicidal action: Digitaria [3] | Pre-emergence herbicidal action: Echinochloa [4] | Pre-emergent Herbicidal Activity: Echinochloa ([4]; Table B3, 30 g/ha) | Pre-emergence herbicidal action: Panicum [5] | Pre-emergence herbicidal action: Chenopodium [9] | Pre-emergent Herbicidal Activity: Setaria ([12]; 30 g/ha) | Post-emergence herbicidal action: Abutilon [13] | Post-emergence herbicidal action: Chenopodium [14] | Post-emergence herbicidal action: Ipomea [16] | Post-emergence herbicidal action: Panicum [17] | Post-emergence herbicidal action: Setaria [18] | Post-emergence herbicidal action: Sinapis [19] | Post-emergence herbicidal action: Stellaria [20]

COCCCc1nc(C(F)F)ccc1C(=O)C1C(=O)C2CCC(C2)C1=O (centres unmarked) [Compound H-3, 3-[6-Difluoromethyl-2-(3-methoxy-propyl)-pyridine-3-carbonyl]-bicyclo[3.2.1]octane-2,4-dione]
9: Pre-emergent Herbicidal Activity: Abutilon ([1]; Table B4, 30 g/ha) | Pre-emergent Herbicidal Activity: Amaranthus ([2]; Table B4, 30 g/ha) | Pre-emergent Herbicidal Activity: Digitaria ([3]; 30 g/ha) | Pre-emergent Herbicidal Activity: Digitaria ([3]; 60 g/ha) | Post-emergence herbicidal action: Abutilon [13] | Post-emergence herbicidal action: Digitaria [15] | Post-emergence herbicidal action: Setaria [18] | Post-emergence herbicidal action: Sinapis [19] | Post-emergence herbicidal action: Stellaria [20]
45 to 46 °C: melting point
0: Pre-emergent Herbicidal Activity: Corn ([6]; Table B4, 30 g/ha) | Pre-emergent Herbicidal Activity: Corn ([6]; Table B4, 60 g/ha) | Pre-emergent Herbicidal Activity: Soya ([7]; Table B4, 30 g/ha) | Pre-emergent Herbicidal Activity: Soya ([7]; Table B4, 60 g/ha)
8: Pre-emergence herbicidal action: Stellaria [10] | Post-emergence herbicidal action: Ipomea [16]
10: Pre-emergence herbicidal action: Abutilon [1] | Pre-emergent Herbicidal Activity: Abutilon ([1]; Table B4, 60 g/ha) | Pre-emergence herbicidal action: Amaranthus [2] | Pre-emergent Herbicidal Activity: Amaranthus ([2]; Table B4, 60 g/ha) | Pre-emergence herbicidal action: Digitaria [3] | Pre-emergence herbicidal action: Echinochloa [4] | Pre-emergent Herbicidal Activity: Echinochloa ([4]; Table B4, 30 g/ha) | Pre-emergent Herbicidal Activity: Echinochloa ([4]; Table B4, 60 g/ha) | Pre-emergence herbicidal action: Panicum [5] | Pre-emergent Herbicidal Activity: Panicum ([5]; 30 g/ha) | Pre-emergent Herbicidal Activity: Panicum ([5]; 60 g/ha) | Pre-emergence herbicidal action: Chenopodium [9] | Post-emergence herbicidal action: Chenopodium [14] | Post-emergence herbicidal action: Panicum [17]
7: Pre-emergent Herbicidal Activity: Xanthium ([8]; 30 g/ha) | Pre-emergent Herbicidal Activity: Xanthium ([8]; 60 g/ha)
